These are literature values, as cited in publication PMC5328943 (International journal of pharmaceutics, 2017).

Converted amounts (≈) assume the structure as drawn.

For the data set the following is noted: with TPGS; ref Yu et al., 1999.

`CC(C)CN(C[C@@H](O)[C@H](Cc1ccccc1)NC(=O)O[C@H]1CCOC1)S(=O)(=O)c1ccc(N)cc1` [amprenavir]: the solubility in water is 720 µg/mL (≈ 1420 µM).
